Measurements as given in US10441668B2, “System and method for enhanced mass spectrometry imaging” (University Health Network, priority 2014, dated 2019).
“And” between values parts separate entries of the source, which are not always exact repeats. Equal entries are not always repeated.

Assays:
breast cancer tumor = experiment: ICP-MS quantification of Gd in sections of breast cancer tumor after acid extraction; type: in vivo, mice; conditions: 200 μm thick tumor slice
From the text: Referring now to FIG. 10B, shown therein are the results of quantitative analysis of the distribution of an exogenous agent in a section of a breast cancer tumor. Here, ICP-MS was used to quantify the amount of Gadolinium (Gd) element in a 200 um thick section of the breast cancer tumor shown in FIG. 10A. The distribution of all three contributing Gadoteridol adducts (discussed above with reference to FIG. 4) are shown overlaid on an image of the tumor section.
To validate the ion abundances shown in the DESI-MS image 1000, a 200 μm think-slice of tumor was sectioned into three areas (1025, 1030 and 1040). The total tissue weight in each section was determined using an analytical balance and Gadoteridol was acid extracted for ICP-MS quantification. Gadoteridol was extracted using excess volume (e.g., 3.5 mls for every 1 mg tissue material in two rounds) of 10% perchloric acid through mixing and vortexing followed by a 30 min centrifugation at 21,000G taking the supernatant that was then diluted 5× with double distilled water. For ICP-MS analysis both the standard Gadoteridol solutions and the extracted samples were taken up in excess 2% nitric acid (1000 fold dilution) and were subjected to ICP-MS quantification using a Nexlon 350 ICP-MS (Perkin-Elmer).

breast cancer tumors = experiment: kinetic DCE magnetic resonance imaging of contrast agent passively targeted to breast cancer tumors in live mice; type: in vivo; conditions: intravenous injection into tail vein
Experimental: Referring now to FIGS. 3A and 3B, shown therein are the results of kinetic DCE magnetic resonance imaging of an exogenous contrast agent (in this example Gadoteridol) that was passively targeted to breast cancer tumors in live mice. In both cases, Gadoteridol was intravenously injected into the tail vein of mice under anesthesia with isofluorane.
A first MR image 305 was taken at the time of injection. […] A second MR image 310 was taken at 5 minutes post injection.
As indicated by legend 322, the maximum signal intensity appears to reach its peak in plot 320 after 5 minutes. The exogenous agent was seen to penetrate and diffuse into the tumor core from the peripheries of the tumor.
A second MR image 345 was taken at 5 minutes post injection.
(§1) To obtain the images shown below in FIGS. 5A-5C and FIGS. 6A-6C, SCID mice (from Harlan Laboratories) were inoculated in the lower mammary fat pad with 3×106 human MDA-MB-231 triple negative metastatic breast cancer cells and housed for 3 weeks to grow tumors up to 1 cm in diameter (caliper measurements). […] Throughout the imaging sessions, the animals' breathing was monitored using a respiratory pad and a respiratory tracking system (when imaged on the 1T Aspect or 7T Bruker MRI system, ˜30 min per imaging session).

[1] = tested on: human MDA-MB-231 breast cancer tumors; experiment: two-dimensional DESI-MS imaging of contrast agent distribution in excised human breast cancer tumor slices; type: in vivo, SCID mice; conditions: 5 minutes post injection, DESI-MS images vs H&E stained images
Experimental: All the DESI-MS experiments described herein were performed using a Thermo Fisher Scientific LTQ mass spectrometer (San Jose, Calif., USA). Data was acquired and processed using QualBrowser Xcalibur 2.0 (Thermo Fisher Scientific). Mass spectra were acquired as full scans, in the positive ion mode, over the mass to charge ratio range from m/z 500 to 900. Typical instrumental parameters used were 4.5 kV capillary voltage and 275° C. capillary temperature. An H2O-MeOH (1:1) solution was used as the spray solvent and delivered at the flow rate of 1.5 μL min-1. Methanol (MeOH) and ultra-pure water (H2O), both HPLC-MS grade, were purchased from Sigma Aldrich (Oakville, ON, Canada). The sprayer-to-surface distance was 1.0 mm, the sprayer to inlet distance was 6-8 mm, an incident spray was set at 54°, and a collection angle of 10° was used. […]
as §1, with “session). […]” for “session).”

For `CC(O)CN1CCN(CC(=O)[O-])CCN(CC(=O)[O-])CCN(CC(=O)[O-])CC1.[Gd+3]` (centres unmarked) [Gadoteridol], the “absolute value of Gd element in tumor section, first area 1025” value (breast cancer tumor; first area 1025, ICP-MS) was 54 pg, the “absolute value of Gd element in tumor section, second area 1030” value (breast cancer tumor; second area 1030, ICP-MS) was 12.8 pg and the “absolute value of Gd element in tumor section, third area 1040” value (breast cancer tumor; third area 1040, ICP-MS) was 27.5 pg. The “time post injection at which the tumor site exhibits maximal contrast enhancement (MR signal intensity peak)” value (breast cancer tumors) was 5 min and < 5 min and the “signal in necrotic region of the breast cancer tumor” value [1] was “no Gadoteridol signal”.
